Experimental data published in ChEMBL document CHEMBL4257221, “Peptides comprising non-natural amino acids and methods of making and using the same” (2016).
Numbered stars: 1 amine (or outer) side, 2 acyl side, 3 side chain; on linkers, the order of the positions; unused ones are H or OH. Square brackets hold non-standard residues; d marks the D form. Peptide text beside a SMILES is read from it. ξ: configuration not given here. X1 = O=C([C@H]1CCC[C@@H]1N[*:1])[*:2]; X2 = O=C([C@H]1CNC[C@@H]1N[*:1])[*:2]; ξβ3hN = NC(=O)CC(N)CC(=O)O; ξβ3hL = CC(C)CC(N)CC(=O)O; ξβ3hK = NCCCCC(N)CC(=O)O; βAla = NCCC(=O)O

Assays:
[1] = target: T1, Vasoactive intestinal polypeptide receptor 1 (Homo sapiens, UniProt P32241); assay: Agonist activity at human VIPR1 expressed in CHOK1 cells assessed as intracellular cAMP accumulation after 60 mins by PathHunter assay; assay type: functional, cell-based
T1 sequence (P32241 whole entry): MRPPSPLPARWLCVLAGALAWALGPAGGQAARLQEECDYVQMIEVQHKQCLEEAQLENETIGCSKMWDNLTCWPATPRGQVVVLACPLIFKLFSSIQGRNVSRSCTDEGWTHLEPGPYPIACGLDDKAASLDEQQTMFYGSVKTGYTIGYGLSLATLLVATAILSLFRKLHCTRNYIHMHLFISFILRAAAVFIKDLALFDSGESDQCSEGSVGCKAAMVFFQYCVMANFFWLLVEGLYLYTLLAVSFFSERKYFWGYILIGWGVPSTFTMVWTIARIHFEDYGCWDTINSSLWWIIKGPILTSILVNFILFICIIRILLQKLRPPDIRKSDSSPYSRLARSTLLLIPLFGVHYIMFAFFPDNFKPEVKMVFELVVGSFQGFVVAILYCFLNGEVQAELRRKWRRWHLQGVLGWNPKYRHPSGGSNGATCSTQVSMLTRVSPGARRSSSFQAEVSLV

[2] = target: T2, Vasoactive intestinal polypeptide receptor 2 (Homo sapiens, UniProt P41587); assay: Agonist activity at human VIPR2 expressed in CHOK1 cells assessed as intracellular cAMP accumulation after 60 mins by PathHunter assay; assay type: functional, cell-based
T2 sequence (P41587 whole entry): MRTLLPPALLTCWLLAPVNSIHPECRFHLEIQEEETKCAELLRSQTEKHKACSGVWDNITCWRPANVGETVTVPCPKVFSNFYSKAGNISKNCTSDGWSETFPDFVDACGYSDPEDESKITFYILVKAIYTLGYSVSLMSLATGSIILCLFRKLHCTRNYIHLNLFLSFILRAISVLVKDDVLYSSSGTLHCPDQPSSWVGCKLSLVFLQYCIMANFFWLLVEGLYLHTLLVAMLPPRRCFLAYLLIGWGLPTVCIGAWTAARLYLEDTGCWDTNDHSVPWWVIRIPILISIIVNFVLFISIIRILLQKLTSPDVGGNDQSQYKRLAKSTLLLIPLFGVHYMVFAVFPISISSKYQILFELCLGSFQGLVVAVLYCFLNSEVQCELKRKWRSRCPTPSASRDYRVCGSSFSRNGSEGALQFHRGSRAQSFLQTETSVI

EC50 [1] [nM] | EC50 [2] [nM] | Structure (SMILES)
> 1000 | 989 | CC[C@H](C)[C@H](NC(=O)[C@H](C)NC(=O)[C@H](CC(N)=O)NC(=O)CC(CC(C)C)NC(=O)[C@H](Cc1ccc(O)cc1)NC(=O)[C@H](CCCCN)NC(=O)[C@H](CCCCN)NC(=O)CC(NC(=O)[C@H](C)NC(=O)[C@H](CC(C)C)NC(=O)[C@H](CCC(N)=O)NC(=O)CC(CCCCN)NC(=O)[C@H](CCCNC(=N)N)NC(=O)[C@H](CC(C)C)NC(=O)[C@H](CCCNC(=N)N)NC(=O)CC(NC(=O)[C@H](Cc1ccc(O)cc1)NC(=O)CC(CC(N)=O)NC(=O)[C@H](CC(=O)O)NC(=O)[C@@H](NC(=O)[C@H](Cc1ccccc1)NC(=O)CC(NC(=O)[C@H](C)NC(=O)[C@H](CC(=O)O)NC(=O)[C@@H](Cc1ccccc1)NC(=O)[C@@H](N)Cc1cnc[nH]1)C(C)C)[C@@H](C)O)C(C)O)C(C)C)C(=O)NC(CC(=O)N[C@@H](CC(N)=O)C(=O)O)CC(C)C (stereo partly drawn)
619000 | 344 | CC[C@H](C)[C@H](NC(=O)[C@H](C)NC(=O)[C@H](CC(N)=O)NC(=O)CC(CC(C)C)NC(=O)[C@H](Cc1ccc(O)cc1)NC(=O)[C@H](CCCCN)NC(=O)[C@H](CCCCN)NC(=O)CC(NC(=O)[C@H](C)NC(=O)[C@H](CC(C)C)NC(=O)[C@H](CCC(N)=O)NC(=O)CC(CCCCN)NC(=O)[C@H](CCCNC(=N)N)NC(=O)[C@H](CC(C)C)NC(=O)[C@H](CCCNC(=N)N)NC(=O)CC(NC(=O)[C@H](Cc1ccc(O)cc1)NC(=O)[C@H](CC(N)=O)NC(=O)[C@H](CC(=O)O)NC(=O)[C@@H](NC(=O)[C@H](Cc1ccccc1)NC(=O)[C@@H](NC(=O)[C@H](C)NC(=O)[C@H](CC(=O)O)NC(=O)[C@@H](Cc1ccccc1)NC(=O)[C@@H](N)Cc1cnc[nH]1)C(C)C)[C@@H](C)O)C(C)O)C(C)C)C(=O)NC(CC(=O)N[C@@H](CC(N)=O)C(=O)O)CC(C)C (stereo partly drawn)
71.2 | 50.3 | CC[C@H](C)[C@H](NC(=O)[C@H](C)NC(=O)[C@H](CC(N)=O)NC(=O)CC(CC(C)C)NC(=O)[C@H](Cc1ccc(O)cc1)NC(=O)[C@H](CCCCN)NC(=O)[C@H](CCCCN)NC(=O)CC(NC(=O)[C@H](C)NC(=O)[C@H](CC(C)C)NC(=O)[C@H](CCC(N)=O)NC(=O)CC(CCCCN)NC(=O)[C@H](CCCNC(=N)N)NC(=O)[C@H](CC(C)C)NC(=O)[C@H](CCCNC(=N)N)NC(=O)CC(NC(=O)[C@H](Cc1ccc(O)cc1)NC(=O)[C@H](CC(N)=O)NC(=O)[C@H](CC(=O)O)NC(=O)[C@@H](NC(=O)[C@H](Cc1ccccc1)NC(=O)CC(NC(=O)[C@H](C)NC(=O)[C@H](CC(=O)O)NC(=O)[C@@H](Cc1ccccc1)NC(=O)[C@@H](N)Cc1cnc[nH]1)C(C)C)[C@@H](C)O)C(C)O)C(C)C)C(=O)NC(CC(=O)N[C@@H](CC(N)=O)C(=O)O)CC(C)C (stereo partly drawn)

The remaining lines, values behind:

Structure (SMILES) | EC50 [1] [nM] | EC50 [2] [nM]
CC[C@H](C)[C@H](NC(=O)[C@H](C)NC(=O)[C@H](CC(N)=O)NC(=O)CC(CC(C)C)NC(=O)[C@H](Cc1ccc(O)cc1)NC(=O)[C@H](CCCCN)NC(=O)[C@H](CCCCN)NC(=O)CC(NC(=O)[C@H](C)NC(=O)[C@H](CC(C)C)NC(=O)[C@H](CCC(N)=O)NC(=O)CC(CCCCN)NC(=O)[C@H](CCCNC(=N)N)NC(=O)[C@H](CC(C)C)NC(=O)[C@H](CCCNC(=N)N)NC(=O)CC(NC(=O)[C@H](Cc1ccc(O)cc1)NC(=O)[C@H](CC(N)=O)NC(=O)[C@H](CC(=O)O)NC(=O)CC(NC(=O)[C@H](Cc1ccccc1)NC(=O)[C@@H](NC(=O)[C@H](C)NC(=O)CC(CC(=O)O)NC(=O)[C@@H](Cc1ccccc1)NC(=O)[C@@H](N)Cc1cnc[nH]1)C(C)C)C(C)O)C(C)O)C(C)C)C(=O)NC(CC(=O)N[C@@H](CC(N)=O)C(=O)O)CC(C)C (stereo partly drawn) | 912 | 609
CC[C@H](C)[C@H](NC(=O)[C@H](C)NC(=O)[C@H](CC(N)=O)NC(=O)CC(CC(C)C)NC(=O)[C@H](Cc1ccc(O)cc1)NC(=O)[C@H](CCCCN)NC(=O)[C@H](CCCCN)NC(=O)CC(NC(=O)[C@H](C)NC(=O)[C@H](CC(C)C)NC(=O)[C@H](CCC(N)=O)NC(=O)CC(CCCCN)NC(=O)[C@H](CCCNC(=N)N)NC(=O)[C@H](CC(C)C)NC(=O)[C@H](CCCNC(=N)N)NC(=O)CC(NC(=O)[C@H](Cc1ccc(O)cc1)NC(=O)[C@H](CC(N)=O)NC(=O)[C@H](CC(=O)O)NC(=O)[C@@H](NC(=O)[C@H](Cc1ccccc1)NC(=O)[C@H]1CCC[C@@H]1NC(=O)[C@H](C)NC(=O)[C@H](CC(=O)O)NC(=O)[C@@H](Cc1ccccc1)NC(=O)[C@@H](N)Cc1cnc[nH]1)[C@@H](C)O)C(C)O)C(C)C)C(=O)NC(CC(=O)N[C@@H](CC(N)=O)C(=O)O)CC(C)C (stereo partly drawn) | 89.3 | > 1000
CC[C@H](C)[C@H](NC(=O)[C@H](CO)NC(=O)[C@H]1CCC[C@@H]1NC(=O)[C@H](CC(C)C)NC(=O)[C@H](Cc1ccc(O)cc1)NC(=O)[C@H]1CNC[C@@H]1NC(=O)[C@H](CCCCN)NC(=O)[C@H](C)NC(=O)[C@H](C)NC(=O)[C@H]1CCC[C@@H]1NC(=O)[C@H](CCC(N)=O)NC(=O)[C@H](CCCCN)NC(=O)[C@H](CCCNC(=N)N)NC(=O)[C@H](CC(C)C)NC(=O)[C@H](CCCNC(=N)N)NC(=O)[C@@H](NC(=O)[C@H](Cc1ccc(O)cc1)NC(=O)[C@H](CC(N)=O)NC(=O)[C@H](CC(=O)O)NC(=O)[C@@H](NC(=O)[C@H](Cc1ccccc1)NC(=O)[C@@H](NC(=O)[C@H](C)NC(=O)[C@H](CC(=O)O)NC(=O)[C@H](CO)NC(=O)[C@H](Cc1cnc[nH]1)NC(C)=O)C(C)C)[C@@H](C)O)[C@@H](C)O)C(=O)N[C@@H](CCCCN)C(=O)NC(CC(N)=O)CC(=O)N[C@@H](CCCCN)C(=O)N[C@@H](CCCNC(=N)N)C(=O)N[C@@H](Cc1ccc(O)cc1)C(=O)O (stereo partly drawn) (Ac-HSDAVFTDNYTRLRKQ[X1]AAK[X2]YL[X1]SIK[ξβ3hN]KRY-OH) | 0.195 | 0.0785
CC(=O)N[C@@H](Cc1cnc[nH]1)C(=O)N[C@@H](CO)C(=O)N[C@@H](CC(=O)O)C(=O)N[C@@H](C)C(=O)N[C@H](C(=O)N[C@@H](Cc1ccccc1)C(=O)N[C@H](C(=O)N[C@@H](CCC(=O)O)C(=O)N[C@@H](CC(N)=O)C(=O)N[C@@H](Cc1ccc(O)cc1)C(=O)N[C@H](C(=O)N[C@@H](CCCCN)C(=O)N[C@@H](CC(C)C)C(=O)N[C@@H](CCCNC(=N)N)C(=O)N[C@@H](CCCCN)C(=O)N[C@@H](CCC(N)=O)C(=O)N[C@@H](CC(C)C)C(=O)N[C@@H](C)C(=O)N[C@@H](C)C(=O)N[C@H]1CNC[C@@H]1C(=O)N[C@@H](CCCCN)C(=O)N[C@@H](Cc1ccc(O)cc1)C(=O)N[C@H]1CCC[C@@H]1C(=O)N[C@@H](CC(N)=O)C(=O)N[C@@H](CC(=O)O)C(=O)N[C@@H](CC(C)C)C(=O)NC(CCCCN)CC(=O)N[C@@H](CCCCN)C(=O)NCC(=O)NCCC(=O)N[C@H](C(=O)O)[C@@H](C)O)[C@@H](C)O)[C@@H](C)O)C(C)C (stereo partly drawn) (Ac-HSDAVFTENYTKLRKQLAA[X2]KY[X1]NDL[ξβ3hK]KG[βAla]T-OH) | > 1000 | 0.963
CC(=O)N[C@@H](Cc1cnc[nH]1)C(=O)N[C@@H](CO)C(=O)N[C@@H](CC(=O)O)C(=O)N[C@@H](C)C(=O)N[C@H](C(=O)N[C@@H](Cc1ccccc1)C(=O)N[C@H](C(=O)N[C@@H](CCC(=O)O)C(=O)N[C@@H](CC(N)=O)C(=O)N[C@@H](Cc1ccc(O)cc1)C(=O)N[C@H](C(=O)N[C@@H](CCCCN)C(=O)N[C@@H](CC(C)C)C(=O)N[C@@H](CCCNC(=N)N)C(=O)N[C@@H](CCCCN)C(=O)N[C@@H](CCC(N)=O)C(=O)N[C@@H](CC(C)C)C(=O)N[C@@H](C)C(=O)N[C@H]1CCC[C@@H]1C(=O)N[C@@H](CCCCN)C(=O)N[C@@H](CCCCN)C(=O)N[C@@H](Cc1ccc(O)cc1)C(=O)N[C@H]1CCC[C@@H]1C(=O)N[C@@H](CC(N)=O)C(=O)N[C@@H](CC(=O)O)C(=O)NC(CC(=O)N[C@@H](CCCCN)C(=O)N[C@@H](CCCCN)C(=O)NCC(=O)NCCC(=O)N[C@H](C(=O)O)[C@@H](C)O)CC(C)C)[C@@H](C)O)[C@@H](C)O)C(C)C (stereo partly drawn) (Ac-HSDAVFTENYTKLRKQLA[X1]KKY[X1]ND[ξβ3hL]KKG[βAla]T-OH) | 9.09 | 104
CC(=O)N[C@@H](Cc1cnc[nH]1)C(=O)N[C@@H](CO)C(=O)N[C@@H](CC(=O)O)C(=O)N[C@@H](C)C(=O)N[C@H](C(=O)N[C@@H](Cc1ccccc1)C(=O)N[C@H](C(=O)N[C@@H](CCC(=O)O)C(=O)N[C@@H](CC(N)=O)C(=O)N[C@@H](Cc1ccc(O)cc1)C(=O)N[C@H](C(=O)N[C@@H](CCCCN)C(=O)N[C@@H](CC(C)C)C(=O)N[C@@H](CCCNC(=N)N)C(=O)N[C@@H](CCCCN)C(=O)N[C@@H](CCC(N)=O)C(=O)N[C@H]1CCC[C@@H]1C(=O)N[C@@H](C)C(=O)N[C@@H](C)C(=O)N[C@@H](CCCCN)C(=O)N[C@H]1CNC[C@@H]1C(=O)N[C@@H](Cc1ccc(O)cc1)C(=O)N[C@@H](CC(C)C)C(=O)N[C@H]1CCC[C@@H]1C(=O)N[C@@H](CC(=O)O)C(=O)N[C@@H](CC(C)C)C(=O)N[C@@H](CCCCN)C(=O)NC(CCCCN)CC(=O)NCC(=O)NCC(=O)N[C@H](C(=O)O)[C@@H](C)O)[C@@H](C)O)[C@@H](C)O)C(C)C (stereo partly drawn) (Ac-HSDAVFTENYTKLRKQ[X1]AAK[X2]YL[X1]DLK[ξβ3hK]GGT-OH) | 9.52 | 0.422
